Results on six compounds are retold here after PubChem BioAssay (NCI).

Test systems include SF-268 CNS; NCI-H226 lung; RXF 393 renal; NCI-H460 lung; HCT-15 colon; LOX IMVI melanoma; SK-MEL-5 melanoma; BT-549 breast; HOP-92 NSCLC; NCI-H23 lung.
Common to all, as to assay: NCI-60 cell line screen, 48 h

The structures appear in SMILES notation.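 48-hour exposure; five concentrations; linearly interpolated endpoints. Abbreviation: GI50, concentration required for 50% inhibition of growth. Definition used: TGI = concentration required for complete inhibition of growth.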

Regarding `CC(C)NCCCNC1=C(Cl)C(=O)c2ccccc2C1=O`, the GI50 in the test with SF-268 CNS is 4.42 µM; in the test with NCI-H226 lung, 12.8 µM; in the test with RXF 393 renal, 14.5 µM; in the test on NCI-H460 lung it was 3.96 µM; in the test on HCT-15 colon, 1.95 µM; in the test on LOX IMVI melanoma it was 1.87 µM. For the same compound, the GI50 was 1.54 µM in the test on SK-MEL-5 melanoma, 5.36 µM in the test on BT-549 breast, 14.6 µM in the test with HOP-92 NSCLC and 1.88 µM in the test with NCI-H23 lung. Moreover, the TGI with SF-268 CNS is 15.1 µM; with NCI-H226 lung it was 27.6 µM; in the test on RXF 393 renal it was 27.8 µM; in the test on NCI-H460 lung, 16.4 µM; in the test with HCT-15 colon, 3.96 µM; in the test with LOX IMVI melanoma, 3.96 µM. The TGI with SK-MEL-5 melanoma was found to be 2.88 µM; in the test with BT-549 breast, 18.2 µM; in the test on HOP-92 NSCLC, 31.2 µM; with NCI-H23 lung, 4.56 µM.

In the case of `COc1ccccc1NC(=O)N/C(N)=N/c1nc2ccccc2s1`, the TGI in the test on SF-268 CNS was greater than 100 µM; with NCI-H226 lung it was greater than 100 µM; in the test on RXF 393 renal, 0.731 µM; in the test on NCI-H460 lung it was greater than 100 µM; with HCT-15 colon, greater than 100 µM; with LOX IMVI melanoma it was greater than 100 µM. Besides, the TGI in the test on SK-MEL-5 melanoma, in the test with BT-549 breast, in the test with HOP-92 NSCLC and in the test on NCI-H23 lung was greater than 100 µM throughout. Besides, the GI50 is 0.949 µM in the test with NCI-H226 lung; 0.0402 µM in the test on RXF 393 renal; 0.115 µM with NCI-H460 lung; 0.0526 µM in the test on HCT-15 colon; 0.145 µM in the test on LOX IMVI melanoma; 0.201 µM with SK-MEL-5 melanoma. In addition, the GI50 in the test on BT-549 breast is 0.334 µM; with HOP-92 NSCLC it was greater than 23.4 µM; in the test on NCI-H23 lung it was 0.15 µM.

For `COc1cccc(NC(=O)c2ccc(C(F)(F)F)nc2Nc2ccc(Cl)cc2C)c1`, the GI50 is 13.8 µM in the test on SF-268 CNS; 14.7 µM with NCI-H226 lung; 1.17 µM in the test on RXF 393 renal; 9.01 µM in the test on NCI-H460 lung; 11 µM in the test with HCT-15 colon; 11.3 µM with LOX IMVI melanoma. The GI50 in the test on SK-MEL-5 melanoma was 14.6 µM; with BT-549 breast, 14.1 µM; in the test with HOP-92 NSCLC it was 4.76 µM; with NCI-H23 lung, 6.45 µM. Also, the TGI with SF-268 CNS turned out to be 32.6 µM; with NCI-H226 lung, 34.8 µM; in the test on RXF 393 renal, 15.4 µM; in the test with NCI-H460 lung, 24.1 µM; in the test on HCT-15 colon it was 22.9 µM; in the test on LOX IMVI melanoma it was 23.4 µM. Further, the TGI in the test with SK-MEL-5 melanoma turned out to be 27.8 µM; in the test with BT-549 breast, 28.4 µM; in the test on HOP-92 NSCLC, 21.4 µM; with NCI-H23 lung, 20 µM.

Regarding `CC(C)(C)OC(=O)N(CCCn1c2c(c3ccccc3c1=O)C(=O)c1ccccc1-2)CCN(CCCn1c2c(c3ccccc3c1=O)C(=O)c1ccccc1-2)C(=O)OC(C)(C)C`, the GI50 in the test with SF-268 CNS was 23.8 µM; in the test with NCI-H226 lung it was greater than 50 µM; in the test with RXF 393 renal it was 12.6 µM; with NCI-H460 lung it was 27.3 µM; with HCT-15 colon, 24.2 µM; with LOX IMVI melanoma, 25.2 µM. For the same compound, the GI50 in the test with SK-MEL-5 melanoma was greater than 50 µM; in the test with BT-549 breast, greater than 50 µM; in the test on HOP-92 NSCLC, 11.1 µM; in the test with NCI-H23 lung it was greater than 50 µM. For the same compound, the TGI with SF-268 CNS, in the test with NCI-H226 lung, with RXF 393 renal, in the test with NCI-H460 lung, in the test on HCT-15 colon and in the test on LOX IMVI melanoma was greater than 50 µM in each case. The TGI in the test with SK-MEL-5 melanoma, with BT-549 breast, in the test on HOP-92 NSCLC and in the test on NCI-H23 lung was greater than 50 µM in each case.

In the case of `C[C@]1(O)CC(=O)[C@]2(O)C3=C(C=C[C@]2(O)C1)C(=O)c1c(O)cccc1C3=O`, the GI50 with SF-268 CNS was 5.16 µM; in the test on NCI-H226 lung it was 1.69 µM; with RXF 393 renal, 1.46 µM; in the test with NCI-H460 lung it was 5.15 µM; in the test on HCT-15 colon, 1.19 µM; in the test on LOX IMVI melanoma it was 2.25 µM. The GI50 was 1.75 µM in the test with SK-MEL-5 melanoma, 2.62 µM in the test with BT-549 breast, 1.51 µM in the test on HOP-92 NSCLC and 1.94 µM in the test with NCI-H23 lung. Further, the TGI in the test with SF-268 CNS came out at 20.5 µM; with NCI-H226 lung, 3.69 µM; in the test with RXF 393 renal, 2.85 µM; in the test with NCI-H460 lung, 23.8 µM; with HCT-15 colon it was 3.08 µM; in the test on LOX IMVI melanoma, 5.77 µM. Further, the TGI with SK-MEL-5 melanoma is 3.47 µM; with BT-549 breast, 9.44 µM; with HOP-92 NSCLC, 2.9 µM; in the test on NCI-H23 lung it was 4.71 µM.

As to `COc1ccc(-n2nc(C)c3c(Nc4ccc(NC(=O)Nc5cc(C(F)(F)F)ccc5F)cc4)ncnc32)cc1`, the GI50 in the test on SF-268 CNS was 3.24 µM; in the test with NCI-H226 lung, 2.34 µM; in the test on RXF 393 renal, 1.09 µM; in the test with NCI-H460 lung, 2.89 µM; in the test on HCT-15 colon, 2.3 µM; in the test with LOX IMVI melanoma it was 1.67 µM. Further, the GI50 in the test on SK-MEL-5 melanoma is 1.91 µM; in the test on BT-549 breast, 2.49 µM; in the test on HOP-92 NSCLC it was 2.23 µM; in the test with NCI-H23 lung it was 2.22 µM. In addition, the TGI with SF-268 CNS was greater than 100 µM; with NCI-H226 lung, 7.23 µM; with RXF 393 renal it was 2.82 µM; with NCI-H460 lung it was 8.7 µM; in the test on HCT-15 colon, 6.31 µM; in the test with LOX IMVI melanoma, 3.1 µM. In addition, the TGI with SK-MEL-5 melanoma was found to be 3.73 µM; in the test with BT-549 breast it was 7.67 µM; in the test with HOP-92 NSCLC it was 6.26 µM; in the test with NCI-H23 lung, 6.71 µM.
